For this test, the system named is AMPK. The test can be described thus: AMPK activation assay (enzyme-linked immunosorbent assay). Format: cell-based. The essentials:
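Compounds were tested for their capacity to activate the kinase using standard, commercially available kit reagents and procedures.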
For `COc1ccc(CN2CCC(NC(=O)c3ccc(C(=O)N4CCC(C(=O)c5ccc(OC)cc5)CC4)cn3)CC2)cc1` [Compound 163, 5-(4-(4-methoxybenzoyl)piperidine-1-carbonyl)-N-(1-(4-methoxybenzyl)piperidin-4-yl)picolinamide], the EC50 – broadly, the concentration that produces a half-maximal response – was less than 500 nM. In the case of `N#Cc1ccc(Oc2ccc(NC(=O)c3ccc(C(=O)N4CCN(Cc5ccc(F)cc5)CC4)cn3)cc2)cc1` [Compound 59, N-(4-(4-cyanophenoxy)phenyl)-5-(4-(4-fluorobenzyl)piperazine-1-carbonyl)picolinamide], the EC50 was less than 500 nM. Regarding `N#Cc1ccc(Cn2cc(NC(=O)c3ccc(C(=O)N4CCN(Cc5ccc(F)cc5)CC4)cn3)cn2)cc1` [Compound 23, N-(1-(4-cyanobenzyl)-1H-pyrazol-4-yl)-5-(4-(4-fluorobenzyl)piperazine-1-carbonyl)picolinamide], the EC50 was less than 500 nM. Compound `N#Cc1ccc(CN2CCC(NC(=O)c3ccc(C(=O)N4CC(OCc5ccc(F)cc5)C4)cn3)CC2)cc1` [Compound 307, N-(1-(4-cyanobenzyl)piperidin-4-yl)-5-(3-(4-fluorobenzyloxy)azetidine-1-carbonyl)picolinamide] gave an EC50 of 500 to 1000 nM. Regarding `O=C(NC1CCN(Cc2cc(F)cc(F)c2)CC1)c1ccc(C(=O)N2CCC(Oc3ccc(F)cc3)CC2)cn1` [Compound 295, N-(1-(3,5-difluorobenzyl)piperidin-4-yl)-5-(4-(4-fluorophenoxy)piperidine-1-carbonyl)picolinamide], the EC50 was less than 500 nM. Regarding `N#Cc1ccc(Oc2ccc(NC(=O)c3ccc(C(=O)N4CCN(Cc5ccc(F)cc5)CC4)cn3)cn2)cc1` [Compound 63, 5-(4-(4-fluorobenzyl)piperazine-1-carbonyl)-(6-(4-cyanophenoxy)pyridin-3-yl)picolinamide], the EC50 is less than 500 nM. `COc1ccc(C(=O)C2CCN(C(=O)c3ccc(C(=O)N[C@@H]4CCN(Cc5csc(C)n5)C[C@@H]4F)cn3)CC2)cc1` [Compound 427, N-((3S,4R)-3-fluoro-1-((2-methylthiazol-4-yl)methyl)piperidin-4-yl)-6-(4-(4-methoxybenzoyl)piperidine-1-carbonyl)nicotinamide] yielded an EC50 of 1000 to 5000 nM. To `N#Cc1ccc(O[C@H]2CC[C@@H](NC(=O)c3ccc(C(=O)N4CC[C@H](Oc5ccc(F)cc5)C4)cn3)CC2)cc1` [Compound 176, N-((cis)-4-(4-cyanophenoxy)cyclohexyl)-5-((S)-3-(4-fluorophenoxy)pyrrolidine-1-carbonyl)picolinamide] belongs 1000 to 5000 nM; to `O=C(NC1CCN(Cc2ccc(OC(F)(F)F)cc2)CC1)c1ccc(C(=O)N2CCC(Oc3ccc(C(=O)C4CC4)cc3)CC2)nc1` [Compound 455, 6-(4-(4-(cyclopropanecarbonyl)phenoxy)piperidine-1-carbonyl)-N-(1-(4-(trifluoromethoxy)benzyl)piperidin-4-yl)nicotinamide], less than 500 nM. Compound `COc1ccc(-c2ccc(NC(=O)c3ccc(C(=O)N4CCN(Cc5ccc(F)cc5)CC4)cn3)cc2)cc1` [Compound 29, N-(4-(4-methoxyphenyl)phenyl)-5-(4-(4-fluorobenzyl)piperazine-1-carbonyl)picolinamide] came in with an EC50 of 500 to 1000 nM. To `COc1ccc(OC2CCN(C(=O)c3ccc(C(=O)N[C@H]4CC[C@H](Oc5ccc(C#N)cc5)CC4)nc3)CC2)cc1` [Compound 172, N-((trans)-4-(4-cyanophenoxy)cyclohexyl)-5-(4-(4-methoxyphenoxy)piperidine-1-carbonyl)picolinamide] belongs less than 500 nM; to `O=C(Nc1ccc(Oc2ccc(F)cc2)nc1)c1ccc(C(=O)N2CCC(Oc3ccc(NS(=O)(=O)C4CC4)cc3)CC2)nc1` [Compound 449, 6-(4-(4-(cyclopropanesulfonamido)phenoxy)piperidine-1-carbonyl)-N-(6-(4-fluorophenoxy)pyridin-3-yl)nicotinamide], 1000 to 5000 nM; to `COc1ccc(S(=O)(=O)N2CCN(C(=O)c3ccc(C(=O)NC4CCN(Cc5ccc(C#N)cc5)CC4)nc3)CC2)cc1` [Compound 79, N-(1-(4-cyanobenzyl)piperidin-4-yl)-5-(4-(4-methoxyphenylsulfonyl)piperazine-1-carbonyl)picolinamide], 500 to 1000 nM.

In turn, `CS(=O)(=O)c1ccc(N2CCC(NC(=O)c3ccc(C(=O)N4CCC(Oc5ccc(C#N)cc5)CC4)nc3)CC2)cc1` [Compound 420, 6-(4-(4-cyanophenoxy)piperidine-1-carbonyl)-N-(1-(4-(methylsulfonyl)phenyl)piperidin-4-yl)nicotinamide] yielded an EC50 of 1000 to 5000 nM.
